According to patent US12709592B2, “Salts of treprostinil” (United Therapeutics Corporation, priority 2013, dated 2026):
Structures can show the parent of a compound that is named as a salt.

Assay: TGA data of UT-15 salts (thermal degradation)
Assay type: physicochemical
Settings: thermogravimetric analysis of the isolated solid salt; temperature beyond which weight loss due to degradation occurs
Text: For all new UT-15 salts, analytical data: IH-NMR, 13C_NMR, IR, purity by HPLC, DSC data, TGA data, water contents, specific rotation were collected.

Row | SMILES | TGA: loss due to degradation beyond
1 | CCCCC[C@H](O)CC[C@@H]1[C@H]2Cc3cccc(OCC(=O)[O-])c3C[C@H]2C[C@H]1O.[K+] [Potassium Salt] | degradation beyond 250 °C
2 | CCCCC[C@H](O)CC[C@@H]1[C@H]2Cc3cccc(OCC(=O)O)c3C[C@H]2C[C@H]1O [L-Lysine Salt] | degradation beyond 200 °C
3 | CCCCC[C@H](O)CC[C@@H]1[C@H]2Cc3cccc(OCC(=O)O)c3C[C@H]2C[C@H]1O [Arginine Salt] | Moisture = 2.07, degradation beyond 200 °C
4 | CCCCC[C@H](O)CC[C@@H]1[C@H]2Cc3cccc(OCC(=O)O)c3C[C@H]2C[C@H]1O [N-Methylglucamine Salt] | degradation beyond 150 °C
5 | CCCCC[C@H](O)CC[C@@H]1[C@H]2Cc3cccc(OCC(=O)O)c3C[C@H]2C[C@H]1O [Choline Salt] | degradation beyond 150 °C
6 | CCCCC[C@H](O)CC[C@@H]1[C@H]2Cc3cccc(OCC(=O)[O][MgH])c3C[C@H]2C[C@H]1O [Mg Salt] | degradation beyond 250 °C
